Results: ChEMBL document CHEMBL5113381, “Large-Scale Screening of Antifungal Peptides Based on Quantitative Structure-Activity Relationship” (2022)
In brackets after ≈: the same amount, converted by molar mass. Peptide text beside a SMILES is read from it.

Experiments:
Type in all cases: functional
Candida albicans = assay: Antifungal activity against Candida albicans SC5314 measured after 24 to 48 hrs by CLSI method; settings: time 24-48 hrs
Pichia kudriavzevii = assay: Antifungal activity against Candida krusei IFM56881 measured after 24 to 48 hrs by CLSI method; settings: time 24-48 hrs
Cryptococcus neoformans = assay: Antifungal activity against Cryptococcus neoformans H99 measured after 24 to 48 hrs by CLSI method; settings: time 24-48 hrs
Candida parapsilosis = assay: Antifungal activity against Candida parapsilosis ATCC 22019 measured after 24 to 48 hrs by CLSI method; settings: Lodderomyces parapsilosis, time 24-48 hrs

SMILES	MIC (Candida albicans) [µM]	MIC (Pichia kudriavzevii) [µM]	MIC (Cryptococcus neoformans) [µM]	MIC (Candida parapsilosis) [µM]
CSCC[C@H](NC(=O)[C@H](CCCNC(=N)N)NC(=O)[C@H](CCCCN)NC(=O)[C@H](CCCCN)NC(=O)[C@H](CCCCN)NC(=O)[C@H](Cc1c[nH]c2ccccc12)NC(=O)[C@H](CCCCN)NC(=O)[C@@H]1CCCN1C(=O)[C@H](CCCNC(=N)N)NC(=O)[C@@H](N)CCSC)C(=O)N[C@@H](CCCNC(=N)N)C(=O)N[C@@H](CCCNC(=N)N)C(=O)N[C@@H](CC(C)C)C(=O)N[C@@H](CCCCN)C(=O)N[C@@H](CCCNC(=N)N)C(=O)N[C@@H](CCCCN)C(=O)N[C@@H](CCCNC(=N)N)C(=O)N[C@@H](CCCCN)C(=O)N[C@@H](CCC(N)=O)C(=O)N[C@@H](CCCNC(=N)N)C(=O)N[C@@H](CCCNC(=N)N)C(=O)N[C@@H](C)C(=O)N[C@@H](CCCNC(=N)N)C(=O)N[C@@H](Cc1ccc(O)cc1)C(=O)N[C@@H](CCCCN)C(=O)O	> 73.8	> 73.8	2.31 (≈ 8.02 µg/mL)	18.4 (≈ 64 µg/mL)
CC[C@H](C)[C@H](NC(=O)CNC(=O)[C@H](CCCNC(=N)N)NC(=O)[C@H](Cc1ccc(O)cc1)NC(=O)[C@H](CS)NC(=O)[C@@H](NC(=O)[C@H](CCCNC(=N)N)NC(=O)[C@H](Cc1ccccc1)NC(=O)[C@H](CS)NC(=O)[C@H](Cc1c[nH]c2ccccc12)NC(=O)[C@@H](N)CCCCN)C(C)C)C(=O)N[C@@H](CS)C(=O)N[C@@H](Cc1ccc(O)cc1)C(=O)N[C@@H](CCCNC(=N)N)C(=O)N[C@@H](CCCCN)C(=O)N[C@@H](CS)C(=O)N[C@@H](CCCNC(=N)N)C(=O)O (H-KWCFRVCYRGICYRKCR-OH)	14.3 (≈ 32 µg/mL)	28.6 (≈ 64 µg/mL)	1.79 (≈ 4.01 µg/mL)	7.14 (≈ 16 µg/mL)
CC[C@H](C)[C@H](NC(=O)CNC(=O)[C@H](CCCNC(=N)N)NC(=O)[C@H](Cc1ccc(O)cc1)NC(=O)[C@H](CS)NC(=O)[C@@H](NC(=O)[C@H](CCCNC(=N)N)NC(=O)[C@H](Cc1ccccc1)NC(=O)[C@H](CS)NC(=O)[C@H](Cc1c[nH]c2ccccc12)NC(=O)[C@@H](N)CCCCN)C(C)C)C(=O)N[C@@H](CS)C(=O)N[C@@H](Cc1ccc(O)cc1)C(=O)N[C@@H](CCCNC(=N)N)C(=O)N[C@@H](CCCNC(=N)N)C(=O)N[C@@H](CS)C(=O)N[C@@H](CCCNC(=N)N)C(=O)O (H-KWCFRVCYRGICYRRCR-OH)	14.1 (≈ 32 µg/mL)	28.2 (≈ 64 µg/mL)	3.53 (≈ 8.01 µg/mL)	7.05 (≈ 16 µg/mL)
CSCC[C@H](N)C(=O)N[C@@H](C)C(=O)N[C@H](C(=O)N[C@@H](CCCCN)C(=O)N[C@@H](CCCCN)C(=O)N[C@@H](CCCCN)C(=O)N[C@H](C(=O)N[C@H](C(=O)N[C@@H](CCCCN)C(=O)N[C@@H](CCCCN)C(=O)N[C@@H](C)C(=O)N[C@H](C(=O)N[C@@H](CCCCN)C(=O)N[C@@H](CCCCN)C(=O)N[C@H](C(=O)N[C@@H](C)C(=O)N[C@@H](CCCCN)C(=O)N[C@@H](CCCCN)C(=O)N[C@@H](C)C(=O)N1CCC[C@H]1C(=O)N[C@@H](CCCCN)C(=O)N[C@@H](CCCCN)C(=O)N[C@@H](C)C(=O)N[C@H](C(=O)N[C@@H](CCCCN)C(=O)N[C@@H](CCCCN)C(=O)N[C@H](C(=O)N[C@@H](C)C(=O)N[C@@H](CCCCN)C(=O)N[C@@H](CCCCN)C(=O)N[C@@H](CCCCN)C(=O)O)C(C)C)C(C)C)C(C)C)C(C)C)C(C)C)C(C)C)[C@@H](C)O (H-MATKKKVVKKAVKKVAKKAPKKAVKKVAKKK-OH)	> 74.9	> 74.9	37.4 (≈ 128 µg/mL)	> 74.9
CC[C@H](C)[C@H](NC(=O)CNC(=O)[C@H](C)NC(=O)[C@H](CC(C)C)NC(=O)[C@H](C)NC(=O)[C@H](Cc1c[nH]c2ccccc12)NC(=O)[C@H](CC(C)C)NC(=O)[C@H](CCCCN)NC(=O)[C@H](CCCCN)NC(=O)[C@H](Cc1ccc(O)cc1)NC(=O)[C@H](CCCCN)NC(=O)[C@@H](N)CCSC)C(=O)N[C@@H](C)C(=O)N[C@@H](CC(C)C)C(=O)N[C@@H](CO)C(=O)N[C@@H](CS)C(=O)N[C@@H](CC(N)=O)C(=O)N[C@@H](CC(C)C)C(=O)N[C@@H](CC(C)C)C(=O)N[C@@H](CC(C)C)C(=O)N[C@H](C(=O)N[C@@H](C)C(=O)O)[C@@H](C)O (H-MKYKKLWALAGIALSCNLLLTA-OH)	> 106	> 106	> 106	> 106
CC[C@H](C)[C@H](NC(=O)[C@@H](NC(=O)[C@H](Cc1ccccc1)NC(=O)[C@H](CS)NC(=O)[C@@H](NC(=O)[C@H](CC(C)C)NC(=O)[C@H](Cc1ccccc1)NC(=O)[C@@H](NC(=O)[C@H](Cc1ccccc1)NC(=O)CNC(=O)[C@H](Cc1ccccc1)NC(=O)[C@H](CCCCN)NC(=O)[C@H](CCCCN)NC(=O)[C@H](CCCCN)NC(=O)[C@H](CC(C)C)NC(=O)[C@@H](N)CCSC)C(C)C)C(C)C)C(C)C)C(=O)N[C@@H](Cc1ccccc1)C(=O)N[C@@H](Cc1cnc[nH]1)C(=O)N[C@@H](CO)C(=O)N[C@@H](CS)C(=O)N[C@@H](CCCCN)C(=O)O (H-MLKKKFGFVFLVCFVIFHSCK-OH)	> 102	> 102	> 102	> 102
CC[C@H](C)[C@H](NC(=O)[C@H](CCCCN)NC(=O)[C@H](CO)NC(=O)[C@H](Cc1ccccc1)NC(=O)[C@@H](NC(=O)[C@@H](NC(=O)[C@H](CCCNC(=N)N)NC(=O)[C@H](Cc1ccccc1)NC(=O)[C@@H](NC(=O)[C@H](CCCCN)NC(=O)[C@H](CC(N)=O)NC(=O)[C@@H](N)CCSC)[C@@H](C)CC)C(C)C)[C@@H](C)CC)C(=O)N[C@@H](CC(C)C)C(=O)NCC(=O)N[C@@H](CCCNC(=N)N)C(=O)N[C@@H](CC(C)C)C(=O)N[C@H](C(=O)N[C@H](C(=O)N[C@H](C(=O)O)[C@@H](C)O)C(C)C)[C@@H](C)CC (H-MNKIFRVIFSKILGRLIVT-OH)	14.2 (≈ 32 µg/mL)	56.9 (≈ 128 µg/mL)	7.12 (≈ 16 µg/mL)	14.2 (≈ 32 µg/mL)
CC[C@H](C)[C@H](NC(=O)[C@H](CCC(N)=O)NC(=O)[C@H](CCCCN)NC(=O)[C@H](CCCCN)NC(=O)[C@H](Cc1c[nH]c2ccccc12)NC(=O)[C@@H]1CCCN1C(=O)[C@@H](NC(=O)[C@H](CC(C)C)NC(=O)[C@H](CCCNC(=N)N)NC(=O)[C@H](CC(C)C)NC(=O)[C@@H](NC(=O)[C@H](CC(C)C)NC(=O)[C@@H]1CCCN1C(=O)[C@H](CCCCN)NC(=O)[C@H](Cc1cnc[nH]1)NC(=O)[C@H](CS)NC(=O)[C@H](CCCCN)NC(=O)[C@H](CCCNC(=N)N)NC(=O)[C@H](CC(C)C)NC(=O)[C@H](CCCNC(=N)N)NC(=O)[C@@H](N)CCSC)[C@@H](C)O)C(C)C)C(=O)N[C@@H](CCSC)C(=O)O (H-MRLRKCHKPLTLRLVPWKKQIM-OH)	> 92.2	> 92.2	92.2 (≈ 256 µg/mL)	> 92.2
CC[C@H](C)[C@H](NC(=O)[C@H](CCCCN)NC(=O)[C@@H](NC(=O)[C@@H](N)CCSC)[C@@H](C)O)C(=O)N[C@@H](CC(C)C)C(=O)N[C@@H](CC(C)C)C(=O)N[C@H](C(=O)N[C@H](C(=O)N[C@@H](CCCCN)C(=O)N[C@@H](CCCNC(=N)N)C(=O)N[C@@H](CC(C)C)C(=O)N[C@@H](CCCNC(=N)N)C(=O)N[C@H](C(=O)N[C@H](C(=O)N[C@@H](Cc1ccc(O)cc1)C(=O)N[C@H](C(=O)N[C@@H](CCCCN)C(=O)N[C@@H](CCCNC(=N)N)C(=O)N[C@@H](CS)C(=O)N[C@@H](CC(C)C)C(=O)N[C@@H](CS)C(=O)N[C@@H](Cc1ccccc1)C(=O)N[C@@H](CCCNC(=N)N)C(=O)N[C@@H](C)C(=O)O)[C@@H](C)O)C(C)C)[C@@H](C)O)C(C)C)[C@@H](C)CC (H-MTKILLIVKRLRTVYTKRCLCFRA-OH)	43.8 (≈ 128 µg/mL)	21.9 (≈ 64 µg/mL)	5.47 (≈ 16 µg/mL)	43.8 (≈ 128 µg/mL)
CC[C@H](C)[C@H](NC(=O)[C@H](C)NC(=O)[C@H](CCCCN)NC(=O)[C@H](CCCNC(=N)N)NC(=O)[C@@H](NC(=O)[C@H](CCCNC(=N)N)NC(=O)[C@H](CCCNC(=N)N)NC(=O)CNC(=O)[C@H](Cc1ccc(O)cc1)NC(=O)[C@H](CCCNC(=N)N)NC(=O)[C@H](C)NC(=O)CNC(=O)[C@H](Cc1ccccc1)NC(=O)[C@H](CCCNC(=N)N)NC(=O)CNC(=O)[C@H](C)NC(=O)[C@H](CO)NC(=O)[C@H](CCCCN)NC(=O)[C@@H](NC(=O)[C@H](CCCCN)NC(=O)[C@@H](NC(=O)CNC(=O)[C@H](CCCCN)NC(=O)[C@H](CCCCN)NC(=O)[C@H](CCCNC(=N)N)NC(=O)[C@H](CCCCN)NC(=O)[C@H](CCC(N)=O)NC(=O)[C@H](CCCCN)NC(=O)[C@H](CCCCN)NC(=O)[C@@H](NC(=O)[C@@H](N)CCSC)[C@@H](C)O)[C@@H](C)CC)[C@@H](C)O)[C@@H](C)CC)C(=O)O (H-MTKKQKRKKGIKTKSAGRFGARYGRRIRKAI-OH)	> 70.7	> 70.7	8.84 (≈ 32 µg/mL)	4.42 (≈ 16 µg/mL)
CC[C@H](C)[C@H](NC(=O)[C@H](CCCCN)NC(=O)[C@H](CC(C)C)NC(=O)[C@H](Cc1ccccc1)NC(=O)[C@H](CC(C)C)NC(=O)[C@H](Cc1ccccc1)NC(=O)[C@@H](NC(=O)[C@H](CO)NC(=O)[C@H](CO)NC(=O)[C@@H](NC(=O)[C@H](Cc1ccccc1)NC(=O)[C@@H](NC(=O)[C@H](CO)NC(=O)[C@H](Cc1ccc(O)cc1)NC(=O)[C@@H](N)CCSC)C(C)C)[C@@H](C)CC)[C@@H](C)CC)C(=O)N[C@@H](CCCNC(=N)N)C(=O)N[C@@H](Cc1ccccc1)C(=O)N[C@@H](CCCCN)C(=O)N[C@@H](CC(C)C)C(=O)N[C@@H](Cc1ccc(O)cc1)C(=O)N1CCC[C@H]1C(=O)N[C@@H](CCCNC(=N)N)C(=O)O (H-MYSVFISSIFLFLKIRFKLYPR-OH)	> 92.4	> 92.4	> 92.4	> 92.4
CC(C)C[C@H](NC(=O)[C@H](CCC(=O)O)NC(=O)[C@H](CCCCN)NC(=O)[C@H](CC(C)C)NC(=O)[C@@H](NC(=O)[C@@H]1CCCN1)C(C)C)C(=O)N[C@@H](CCCCN)C(=O)N[C@@H](CO)C(=O)N[C@H](C(=O)N[C@@H](CCC(N)=O)C(=O)N[C@@H](CCCCN)C(=O)N[C@H](C(=O)N[C@@H](CCCCN)C(=O)N[C@@H](CO)C(=O)NCC(=O)N[C@@H](CC(=O)O)C(=O)N[C@H](C(=O)N[C@@H](CC(C)C)C(=O)N[C@@H](Cc1ccc(O)cc1)C(=O)O)[C@@H](C)O)[C@@H](C)O)C(C)C (H-PVLKELKSVQKTKSGDTLY-OH)	> 120	> 120	> 120	> 120
